# According to patent publication US20060257441A1, “Natural essential oil sanitary insect pest repellent and its use” (SUZUKI YUSHI INDUSTRIAL CO., LTD., priority 2005, published 2006):
# Tested on: Croton bug
# Experiment: Physiological activity (Croton bug repellency) test, Test Example 5
# Assay type: in vivo
# Settings: 3% solution in 1:1 hexane/acetone
# Source text: A fraction 1 (16.192 g) of copaiba oil was given by silica gel column chromatography (replenishment silica gel: BW-127ZH, 350 g) using 3 liter of hexane as an elution solvent. A fraction 2 (2.868 g) was given by silica gel column chromatography (same as above) using a 4:4:1 mixture of hexane/chloroform/ethyl acetate as an elution solvent. A fraction 3 (1.401 g) was given by fractionating the remnant of the fraction 2 using a 1:1 solvent mixture of ethyl acetate/chloroform 21 as an elution solvent.
# For comparison, the same test was conducted using copaiba oil and β-caryophyllene. The specimen was a 3% solution in the solvent. The solution was given using a 1:1 (volume ratio) mixture of hexane and acetone.
structure (smiles),measurement,setting,value
C=C1CC/C=C(\C)CC[C@@H]2[C@@H]1CC2(C)C [β-caryophyllene],Repellency ratio (%) with time,4 hours,96.2%
same,Repellency ratio (%) with time,24 hours,70.6%
same,Repellency ratio (%) with time,48 hours,52.6%
